{"source": "patent US20110263664A1", "about": "“Inhibitors of PIM-1 Protein Kinases, Compositions and Methods for Treating Prostate Cancer” (MUSC FOUNDATION FOR RESEARCH DEVELOPMENT, priority 2007, published 2011)", "format_in_all_cases": "biochemical", "key": {"PAK2": {"target": "PAK2 (Homo sapiens, UniProt Q13177)", "test": "Kinase selectivity, Table 5: PAK2", "conditions": "read-out: selectivity data (inhibition), PAK2"}, "CDK2": {"target": "CDK2 (Homo sapiens, UniProt P24941)", "test": "Kinase selectivity, Table 5: CDK2", "conditions": "read-out: selectivity data (inhibition), CDK2"}, "RSK1": {"target": "RSK1 (Homo sapiens, UniProt Q15418)", "test": "Kinase selectivity, Table 5: RSK1", "conditions": "read-out: selectivity data (inhibition), RSK1"}, "MARK1": {"target": "MARK1 (Homo sapiens, UniProt Q9P0L2)", "sequence (Q9P0L2 whole entry, species assumed)": "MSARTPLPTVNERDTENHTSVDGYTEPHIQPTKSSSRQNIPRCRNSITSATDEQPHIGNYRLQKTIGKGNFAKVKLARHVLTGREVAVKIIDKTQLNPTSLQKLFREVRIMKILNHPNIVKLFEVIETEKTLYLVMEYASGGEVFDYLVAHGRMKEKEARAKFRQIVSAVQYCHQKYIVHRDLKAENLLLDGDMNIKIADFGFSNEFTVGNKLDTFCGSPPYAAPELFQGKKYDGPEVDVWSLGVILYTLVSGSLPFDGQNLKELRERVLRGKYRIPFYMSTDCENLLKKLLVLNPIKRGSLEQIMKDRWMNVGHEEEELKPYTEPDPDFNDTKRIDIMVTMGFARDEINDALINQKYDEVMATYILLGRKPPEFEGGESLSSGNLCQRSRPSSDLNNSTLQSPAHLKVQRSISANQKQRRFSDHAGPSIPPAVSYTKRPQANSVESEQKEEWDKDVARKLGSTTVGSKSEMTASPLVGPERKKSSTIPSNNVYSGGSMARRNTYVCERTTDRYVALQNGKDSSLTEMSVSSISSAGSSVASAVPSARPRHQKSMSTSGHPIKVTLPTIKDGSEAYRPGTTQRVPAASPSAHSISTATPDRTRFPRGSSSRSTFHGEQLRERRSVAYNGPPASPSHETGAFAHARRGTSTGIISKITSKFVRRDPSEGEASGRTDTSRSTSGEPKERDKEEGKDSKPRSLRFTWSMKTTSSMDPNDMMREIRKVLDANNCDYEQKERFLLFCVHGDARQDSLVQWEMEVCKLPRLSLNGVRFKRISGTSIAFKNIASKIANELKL", "test": "Kinase selectivity, Table 5: MARK1", "conditions": "read-out: selectivity data (inhibition), MARK1"}, "PKGα": {"target": "PKGα (Homo sapiens, UniProt Q13976)", "sequence (Q13976 whole entry)": "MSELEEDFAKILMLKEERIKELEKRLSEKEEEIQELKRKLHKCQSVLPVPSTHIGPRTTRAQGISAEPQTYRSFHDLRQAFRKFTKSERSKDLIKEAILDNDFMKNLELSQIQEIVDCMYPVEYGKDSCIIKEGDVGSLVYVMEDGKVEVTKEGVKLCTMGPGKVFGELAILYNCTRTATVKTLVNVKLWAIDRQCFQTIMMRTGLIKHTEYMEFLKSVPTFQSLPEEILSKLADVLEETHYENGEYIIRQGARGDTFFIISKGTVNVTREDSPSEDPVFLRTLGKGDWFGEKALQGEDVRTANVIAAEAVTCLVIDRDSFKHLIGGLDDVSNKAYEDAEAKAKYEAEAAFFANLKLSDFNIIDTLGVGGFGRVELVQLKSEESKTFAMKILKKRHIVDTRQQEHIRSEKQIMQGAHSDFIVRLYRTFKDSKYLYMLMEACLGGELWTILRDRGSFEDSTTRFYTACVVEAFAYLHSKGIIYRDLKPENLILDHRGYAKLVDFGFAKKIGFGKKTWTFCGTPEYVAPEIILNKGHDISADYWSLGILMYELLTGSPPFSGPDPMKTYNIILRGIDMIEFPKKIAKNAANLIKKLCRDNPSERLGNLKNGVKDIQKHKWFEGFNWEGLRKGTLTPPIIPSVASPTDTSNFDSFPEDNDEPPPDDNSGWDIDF", "test": "Kinase selectivity, Table 5: PKGα", "conditions": "read-out: selectivity data (inhibition), PKGα"}, "AKT1": {"target": "AKT1 (Homo sapiens, UniProt P31749)", "sequence (P31749 whole entry, species assumed)": "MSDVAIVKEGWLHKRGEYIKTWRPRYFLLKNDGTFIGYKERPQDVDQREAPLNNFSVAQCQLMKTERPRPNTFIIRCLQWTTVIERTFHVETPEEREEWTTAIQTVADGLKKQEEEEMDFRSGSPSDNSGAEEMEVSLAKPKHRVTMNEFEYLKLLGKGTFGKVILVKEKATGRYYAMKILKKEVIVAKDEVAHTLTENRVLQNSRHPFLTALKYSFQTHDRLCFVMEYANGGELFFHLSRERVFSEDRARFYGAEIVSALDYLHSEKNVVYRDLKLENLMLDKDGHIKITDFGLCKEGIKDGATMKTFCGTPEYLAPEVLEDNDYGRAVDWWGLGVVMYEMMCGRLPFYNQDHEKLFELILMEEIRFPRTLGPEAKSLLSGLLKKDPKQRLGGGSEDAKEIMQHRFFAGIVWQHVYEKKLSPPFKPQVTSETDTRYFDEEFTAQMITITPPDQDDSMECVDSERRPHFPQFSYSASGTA", "test": "Kinase selectivity, Table 5: AKT1", "conditions": "read-out: selectivity data (inhibition), AKT1"}, "CHK1": {"target": "CHK1 (Homo sapiens, UniProt O14757)", "sequence (O14757 whole entry, species assumed)": "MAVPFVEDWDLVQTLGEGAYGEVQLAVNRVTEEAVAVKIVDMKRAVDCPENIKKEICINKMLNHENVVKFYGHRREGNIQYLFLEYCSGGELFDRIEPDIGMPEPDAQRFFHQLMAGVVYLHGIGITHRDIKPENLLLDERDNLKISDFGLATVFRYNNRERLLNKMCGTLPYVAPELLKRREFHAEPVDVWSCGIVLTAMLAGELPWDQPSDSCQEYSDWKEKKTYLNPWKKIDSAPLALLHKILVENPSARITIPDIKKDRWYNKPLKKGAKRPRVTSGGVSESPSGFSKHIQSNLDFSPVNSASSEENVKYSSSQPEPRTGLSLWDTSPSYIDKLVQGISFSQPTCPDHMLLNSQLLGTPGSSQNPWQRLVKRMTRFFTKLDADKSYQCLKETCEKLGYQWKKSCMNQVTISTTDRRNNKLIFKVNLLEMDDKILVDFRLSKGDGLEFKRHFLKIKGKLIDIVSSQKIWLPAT", "test": "Kinase selectivity, Table 5: CHK1", "conditions": "read-out: selectivity data (inhibition), CHK1"}, "PIM2": {"target": "PIM2 (Homo sapiens, UniProt Q9P1W9)", "test": "Kinase selectivity, Table 5: PIM2", "conditions": "read-out: selectivity data (inhibition), PIM2"}, "EGFR": {"target": "EGFR (Homo sapiens, UniProt P00533)", "test": "Kinase selectivity, Table 5: EGFR", "conditions": "read-out: selectivity data (inhibition), EGFR"}, "AurA": {"target": "AurA (Homo sapiens, UniProt O14965)", "sequence (O14965 whole entry, species assumed)": "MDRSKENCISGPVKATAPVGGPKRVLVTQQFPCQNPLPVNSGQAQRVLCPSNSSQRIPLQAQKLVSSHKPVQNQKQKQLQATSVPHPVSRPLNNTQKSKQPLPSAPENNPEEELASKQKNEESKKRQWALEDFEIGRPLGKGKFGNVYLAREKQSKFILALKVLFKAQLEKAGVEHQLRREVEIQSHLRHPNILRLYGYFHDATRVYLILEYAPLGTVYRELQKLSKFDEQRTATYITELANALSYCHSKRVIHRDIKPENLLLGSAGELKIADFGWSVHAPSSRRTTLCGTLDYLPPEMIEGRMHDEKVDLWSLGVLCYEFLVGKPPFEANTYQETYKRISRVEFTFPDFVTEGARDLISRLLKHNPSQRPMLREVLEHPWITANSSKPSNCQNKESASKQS", "test": "Kinase selectivity, Table 5: AurA", "conditions": "read-out: selectivity data (inhibition), AurA"}, "CAMK4": {"target": "CAMK4 (Homo sapiens, UniProt Q16566)", "sequence (Q16566 whole entry)": "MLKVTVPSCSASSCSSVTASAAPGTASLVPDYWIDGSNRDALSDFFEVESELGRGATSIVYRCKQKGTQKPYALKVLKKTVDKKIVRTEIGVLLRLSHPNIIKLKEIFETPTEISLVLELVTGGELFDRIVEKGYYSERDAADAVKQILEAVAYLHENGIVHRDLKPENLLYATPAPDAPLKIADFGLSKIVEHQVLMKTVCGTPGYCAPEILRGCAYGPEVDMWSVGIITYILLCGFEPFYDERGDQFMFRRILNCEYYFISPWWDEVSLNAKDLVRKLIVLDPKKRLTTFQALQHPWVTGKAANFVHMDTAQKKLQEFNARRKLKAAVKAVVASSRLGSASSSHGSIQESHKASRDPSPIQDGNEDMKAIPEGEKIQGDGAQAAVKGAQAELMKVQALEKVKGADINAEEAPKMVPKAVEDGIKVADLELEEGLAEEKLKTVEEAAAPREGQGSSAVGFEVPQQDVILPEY", "test": "Kinase selectivity, Table 5: CAMK4", "conditions": "read-out: selectivity data (inhibition), CAMK4"}, "CK1δ": {"target": "CK1δ (Homo sapiens, UniProt P48730)", "test": "Kinase selectivity, Table 5: CK1δ", "conditions": "read-out: selectivity data (inhibition), CK1δ"}, "PKD2": {"target": "PKD2 (Homo sapiens, UniProt Q9BZL6)", "test": "Kinase selectivity, Table 5: PKD2", "conditions": "read-out: selectivity data (inhibition), PKD2"}, "AKT3": {"target": "AKT3 (Homo sapiens, UniProt Q9Y243)", "test": "Kinase selectivity, Table 5: AKT3", "conditions": "read-out: selectivity data (inhibition), AKT3"}, "PKA": {"target": "PKA (Homo sapiens, UniProt P17612)", "test": "Kinase selectivity, Table 5: PKA", "conditions": "read-out: selectivity data (inhibition), PKA"}, "GSK3β": {"target": "GSK3β (Homo sapiens, UniProt P49841)", "test": "Kinase selectivity, Table 5: GSK3β", "conditions": "read-out: selectivity data (inhibition), GSK3β"}, "ABL": {"target": "ABL (Homo sapiens, UniProt P00519)", "sequence (P00519 whole entry, species assumed)": "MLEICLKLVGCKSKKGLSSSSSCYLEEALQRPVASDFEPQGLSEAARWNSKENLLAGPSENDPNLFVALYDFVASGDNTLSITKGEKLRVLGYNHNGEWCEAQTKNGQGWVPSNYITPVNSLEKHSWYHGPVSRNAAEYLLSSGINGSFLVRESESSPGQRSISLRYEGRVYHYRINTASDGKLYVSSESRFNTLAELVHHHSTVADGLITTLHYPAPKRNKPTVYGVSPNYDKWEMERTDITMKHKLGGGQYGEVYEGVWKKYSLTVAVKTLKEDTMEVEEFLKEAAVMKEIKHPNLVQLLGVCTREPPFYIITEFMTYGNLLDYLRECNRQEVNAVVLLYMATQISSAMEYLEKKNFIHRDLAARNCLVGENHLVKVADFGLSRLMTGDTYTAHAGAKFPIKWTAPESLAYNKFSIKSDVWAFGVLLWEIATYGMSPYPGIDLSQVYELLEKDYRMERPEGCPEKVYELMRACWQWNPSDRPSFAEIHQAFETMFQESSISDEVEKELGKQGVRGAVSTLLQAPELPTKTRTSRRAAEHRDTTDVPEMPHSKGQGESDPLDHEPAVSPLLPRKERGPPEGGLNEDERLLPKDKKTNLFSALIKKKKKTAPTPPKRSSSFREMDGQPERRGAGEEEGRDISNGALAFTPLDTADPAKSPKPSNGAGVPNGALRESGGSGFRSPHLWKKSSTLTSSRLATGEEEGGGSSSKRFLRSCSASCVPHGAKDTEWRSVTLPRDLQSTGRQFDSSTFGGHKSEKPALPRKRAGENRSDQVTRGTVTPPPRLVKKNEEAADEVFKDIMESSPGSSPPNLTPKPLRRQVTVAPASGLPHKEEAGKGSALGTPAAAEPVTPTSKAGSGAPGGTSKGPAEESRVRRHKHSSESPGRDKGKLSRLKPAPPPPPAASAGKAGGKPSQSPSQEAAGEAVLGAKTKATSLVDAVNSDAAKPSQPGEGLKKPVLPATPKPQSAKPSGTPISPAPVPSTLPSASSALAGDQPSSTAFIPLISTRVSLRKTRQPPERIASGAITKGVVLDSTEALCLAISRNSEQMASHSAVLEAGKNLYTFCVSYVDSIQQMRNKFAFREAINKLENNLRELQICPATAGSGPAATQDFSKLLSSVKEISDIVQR", "test": "Kinase selectivity, Table 5: ABL", "conditions": "read-out: selectivity data (inhibition), ABL"}, "KDR": {"target": "KDR (Homo sapiens, UniProt P35968)", "test": "Kinase selectivity, Table 5: KDR", "conditions": "read-out: selectivity data (inhibition), KDR"}, "CHK2": {"target": "CHK2 (Homo sapiens, UniProt O96017)", "sequence (O96017 whole entry, species assumed)": "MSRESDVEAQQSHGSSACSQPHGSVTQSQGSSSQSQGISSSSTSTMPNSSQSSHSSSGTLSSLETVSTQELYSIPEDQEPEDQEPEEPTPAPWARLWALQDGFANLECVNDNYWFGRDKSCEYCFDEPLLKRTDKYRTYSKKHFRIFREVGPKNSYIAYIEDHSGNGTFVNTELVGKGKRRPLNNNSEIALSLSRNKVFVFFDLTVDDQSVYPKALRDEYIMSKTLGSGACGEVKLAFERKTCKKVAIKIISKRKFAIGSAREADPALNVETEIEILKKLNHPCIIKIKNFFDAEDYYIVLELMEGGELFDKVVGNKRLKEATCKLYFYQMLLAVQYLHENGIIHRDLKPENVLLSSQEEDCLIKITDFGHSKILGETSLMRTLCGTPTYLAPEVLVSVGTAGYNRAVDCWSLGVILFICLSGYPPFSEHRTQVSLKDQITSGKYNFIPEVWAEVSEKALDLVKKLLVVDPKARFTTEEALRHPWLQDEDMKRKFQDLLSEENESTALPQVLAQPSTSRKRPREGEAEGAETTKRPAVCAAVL", "test": "Kinase selectivity, Table 5: CHK2", "conditions": "read-out: selectivity data (inhibition), CHK2"}, "SRC": {"target": "SRC (Homo sapiens, UniProt P12931)", "test": "Kinase selectivity, Table 5: SRC", "conditions": "read-out: selectivity data (inhibition), SRC"}, "IRAK4": {"target": "IRAK4 (Homo sapiens, UniProt Q9NWZ3)", "test": "Kinase selectivity, Table 5: IRAK4", "conditions": "read-out: selectivity data (inhibition), IRAK4"}, "MST2": {"target": "MST2 (Homo sapiens, UniProt Q13188)", "test": "Kinase selectivity, Table 5: MST2", "conditions": "read-out: selectivity data (inhibition), MST2"}, "p70S6K": {"target": "p70S6K (Homo sapiens, UniProt P23443)", "test": "Kinase selectivity, Table 5: p70S6K", "conditions": "read-out: selectivity data (inhibition), p70S6K"}}}
{"smiles": "CC(C)c1ccc(C=C2SC(=O)NC2=O)cc1", "note": "[5-(4-iso-propylbenzylidene)thiazolidine-2,4-dione]", "values": [{"measurement": "inhibition at 5 µM", "setting": "PAK2", "value": -1, "unit": "%"}, {"measurement": "inhibition at 5 µM", "setting": "CDK2", "value": -2, "unit": "%"}, {"measurement": "inhibition at 5 µM", "setting": "RSK1", "value": 5, "unit": "%"}, {"measurement": "inhibition at 5 µM", "setting": "MARK1", "value": -6, "unit": "%"}, {"measurement": "inhibition at 5 µM", "setting": "PKGα", "value": 0, "unit": "%"}, {"measurement": "inhibition at 5 µM", "setting": "AKT1", "value": 6, "unit": "%"}, {"measurement": "inhibition at 5 µM", "setting": "CHK1", "value": -20, "unit": "%"}, {"measurement": "inhibition at 5 µM", "setting": "PIM2", "value": 62, "unit": "%"}, {"measurement": "inhibition at 5 µM", "setting": "EGFR", "value": -3, "unit": "%"}, {"measurement": "inhibition at 5 µM", "setting": "AurA", "value": 4, "unit": "%"}, {"measurement": "inhibition at 5 µM", "setting": "CAMK4", "value": -8, "unit": "%"}, {"measurement": "inhibition at 5 µM", "setting": "CK1δ", "value": 7, "unit": "%"}, {"measurement": "inhibition at 5 µM", "setting": "PKD2", "value": -3, "unit": "%"}, {"measurement": "inhibition at 5 µM", "setting": "AKT3", "value": 3, "unit": "%"}, {"measurement": "inhibition at 5 µM", "setting": "PKA", "value": 3, "unit": "%"}, {"measurement": "inhibition at 5 µM", "setting": "GSK3β", "value": 3, "unit": "%"}, {"measurement": "inhibition at 5 µM", "setting": "ABL", "value": 6, "unit": "%"}, {"measurement": "inhibition at 5 µM", "setting": "KDR", "value": -4, "unit": "%"}, {"measurement": "inhibition at 5 µM", "setting": "CHK2", "value": 4, "unit": "%"}, {"measurement": "inhibition at 5 µM", "setting": "SRC", "value": 4, "unit": "%"}, {"measurement": "inhibition at 5 µM", "setting": "IRAK4", "value": 5, "unit": "%"}, {"measurement": "inhibition at 5 µM", "setting": "MST2", "value": 1, "unit": "%"}, {"measurement": "inhibition at 5 µM", "setting": "p70S6K", "value": 8, "unit": "%"}]}
